This is an account of results in article PMC4237514, “Novel amino-β-lactam derivatives as potent cholesterol absorption inhibitors” (European Journal of Medicinal Chemistry, 2014).

Data set [1] can be described thus: MTT cytotoxicity assay in hNPC1L1/MDCKII cells. It counts as cell-based. Particulars: dog, MDCKII cells stably expressing human NPC1L1 (hNPC1L1/MDCKII), read-out: LC50, hNPC1L1/MDCKII. The method, then: (§1) Cytotoxicity of amino alcohols 5, 6 and their diastereoisomeric mixture 5/6 was analyzed using MTT cell proliferation assay and the LC50 values were determined in MDCKII wild type, hNPC1L1/MDCKII, and HepG2 cells (Table 2). MDCKII cells stably expressing human Niemann-Pick C1-like protein 1 (hNPC1L1/MDCKII) (Figure S1) are a pharmacologically validated system for investigating NPC1L1-mediated cholesterol uptake. The LC50 values were higher than 100 μM and considered nontoxic in all three cell lines. […] In addition, we tested the in vitro cytotoxicity of ezetimibe 1 and compounds 5, 6, and 5/6 (70:30) in combination with micelles and found all LC50 values to be above 100 μM (Figure S2).
(§2) Madin–Darby Canine Kidney II (MDCKII) cells, MDCKII cells stably expressing human NPC1L1 (hNPC1L1/MDCKII), and human HepG2 liver cells were maintained in DMEM (Dulbecco's Modified Eagle Medium, Invitrogen, USA) containing 100 units/mL penicillin and 100 μg/mL streptomycin supplemented with 10% FCS (Sigma–Aldrich, Germany). The cells were grown at 37 °C in a humidified 5% CO2 incubator. Stable transfection of MDCKII cells with human NPC1L1 protein was performed using Lipofectamine LTX (Invitrogen, USA) according to the manufacturer's protocol. Selection with 1 mg/mL G418 (Sigma–Aldrich, Germany) was started 2 days after transfection. The concentration of G418 was decreased to 500 μg/mL after 14 days. Stably transfected cells were maintained in DMEM containing 100 units/mL penicillin and 100 μg/mL streptomycin supplemented with 10% FCS and 500 μg/mL G418.
MDCKII, hNPC1L1/MDCKII, and HepG2 cells were seeded in 96-well microtiter plates on day 0 at densities of 3000 cells/well. On day 1, tested compounds (73 mM stock solution in DMSO) were added in five consecutive 10-fold dilutions (10^−8 to 10^−4 mol/L) and incubated for 72 h. Cytotoxicity of the compounds was assessed on day 4 by the MTT cell proliferation assay (Sigma–Aldrich, Germany) which detects mitochondrial dehydrogenase activity in viable cells. The results are expressed as LC50 and the values for each compound were calculated from dose–response curves using linear regression analysis. Each concentration was tested in quadruplicate in three independent experiments. Toxicity of the compounds in combination with micelles was also tested using the same method. MDCKII and hNPC1L1/MDCKII were seeded in 96-well microtiter plates (150 μL medium/well) at a density of 2 × 10^5 cells/mL medium 24 h before the experiment. Micelles were prepared according to the modified method reported by Field et al.. In brief, 0.25 mM oleic acid, 50 μM cholesterol, 10 μM compactin, 50 μM mevalonate, 5 mM Na-taurocholate (Sigma–Aldrich, Germany) in DMEM/10% FCS were mixed and sonicated. […] Thereafter, cytotoxicity was determined using the MTT assay.
(In general: Tetrazolium assays rely on reduction of a dye to a coloured formazan, in cell work by metabolically active cells.)

The test system of the next data set is cholesterol absorption. The experiment in a line: In vivo acute cholesterol absorption. Also on record: species or system C57BL/6 mice. The note with it: mice; for In vivo inhibition (%) of cholesterol absorption, Duodenum / In vivo inhibition (%) of cholesterol absorption, Ileum / In vivo inhibition (%) of cholesterol absorption, Jejunum / In vivo inhibition (%) of cholesterol absorption, Liver / In vivo inhibition (%) of cholesterol absorption, Plasma: [3H]cholesterol reduction relative to vehicle. The method, then:
In vivo, we first determined the consequences of ezetimibe 1 and amino alcohols 5 and 6 on cholesterol absorption. We therefore gavaged mice with 2 μCi [^3H]cholesterol and 10 mg/kg/day of each compound or vehicle, and radioactivity was measured in plasma, liver, and three equal parts of the intestine (duodenum, jejunum, ileum). Percentage of [^3H]cholesterol reduction is presented relative to vehicle, respectively. […] We therefore increased the dose to 20 mg/kg/day and determined inhibition of cholesterol absorption. The inhibition in duodenum and jejunum was similar to the lower dose, whereas in ileum it raised from 21% to 41% (Table 3). Decreased cholesterol absorption of 5 in the small intestine compared to ezetimibe 1 might be explained by the fact that 2-azetidinones are moderate acyl-coenzyme A:cholesterol acyltransferase inhibitors and their level of activity is highly structure-dependent. It might therefore be speculated that acyl-coenzyme A:cholesterol acyltransferase activity of amino alcohols 5 and 6 and their diastereoisomeric mixtures is altered compared to ezetimibe 1.
Male C57BL/6 mice aged 25–28 weeks were maintained under a 12 h light/12 h dark cycle in a temperature-controlled environment with free access to chow diet (Ssniff, Germany) and water. For 2 days, mice (n = 3–5) were fasted for 4 h and gavaged with corn oil (100 μl) (vehicle) containing ezetimibe 1 (10 mg/kg/day) or compounds 5, 6, and 5/6 (70:30) (10 or 20 mg/kg/day). On day 2, 90 min post vehicle or compound treatment, mice were gavaged with corn oil (200 μl) containing [^3H]cholesterol (2 μCi) ([1,2–3H(N)] cholesterol, 1 mCi/mL, ARC Inc., St. Louis, USA). Plasma, liver, and small intestines were collected 4 h post-gavage. Cholesterol uptake and absorption were determined as previously described.

A short description of data set [2]: MTT cytotoxicity in combination with micelles. It counts as cell-based. The note with it: dog, MDCKII wildtype and hNPC1L1/MDCKII cells, Figure S2, read-out: LC50 in combination with micelles. The method, then: (§3) MDCKII, hNPC1L1/MDCKII, and HepG2 cells were seeded in 96-well microtiter plates on day 0 at densities of 3000 cells/well. On day 1, tested compounds (73 mM stock solution in DMSO) were added in five consecutive 10-fold dilutions (10^−8 to 10^−4 mol/L) and incubated for 72 h. Cytotoxicity of the compounds was assessed on day 4 by the MTT cell proliferation assay (Sigma–Aldrich, Germany) which detects mitochondrial dehydrogenase activity in viable cells. The results are expressed as LC50 and the values for each compound were calculated from dose–response curves using linear regression analysis. Each concentration was tested in quadruplicate in three independent experiments. Toxicity of the compounds in combination with micelles was also tested using the same method. MDCKII and hNPC1L1/MDCKII were seeded in 96-well microtiter plates (150 μL medium/well) at a density of 2 × 10^5 cells/mL medium 24 h before the experiment. Micelles were prepared according to the modified method reported by Field et al.. In brief, 0.25 mM oleic acid, 50 μM cholesterol, 10 μM compactin, 50 μM mevalonate, 5 mM Na-taurocholate (Sigma–Aldrich, Germany) in DMEM/10% FCS were mixed and sonicated. Following the micellar formation, compounds 1, 5, 6, and 5/6 (70:30) (73 mM stock solution in DMSO) were added to the medium and vortexed to obtain the final concentrations of the compounds (25, 50, 100, 150, 200 μM) and applied to the cells for 1 h. Thereafter, cytotoxicity was determined using the MTT assay.
Figure S2. In vitro cytotoxicity of the compounds 5, 6, and 5/6 (70:30) in combination with micelles. Cytotoxicity of the newly synthesized compounds was determined in (A) MDCKII wildtype and (B) hNPC1L1/MDCKII cells. The cells were incubated with the indicated concentrations of the compounds in Medium B (0.25 mM oleic acid, 50 μM free cholesterol, 10 μM compactin, 50 μM mevalonate, 5 mM Na-taurocholate in DMEM supplemented with 5% LPDS) for 1 h. The results are expressed as percentage of the survival of cells treated with the compound compared to untreated cells. Data represent mean ± S.E.M. of three independent experiments.

Data set [3] is described as follows: MTT cytotoxicity assay in MDCKII wild type cells. The format is cell-based. Particulars: dog, MDCKII wild type cells, read-out: LC50, MDCKII. How it is done: as §1, §2, §3
The mark [4] stands for this setting: gavage 10 mg/kg/day for 2 days, 10 mg/kg/day.

Structures are written as SMILES. Values joined by “and” are separate entries in the source; they are usually repeats but may differ in a detail not shown here. Equal entries are not always repeated.

In the case of `O=C1[C@H](NCC(O)c2ccc(F)cc2)[C@@H](c2ccc(O)cc2)N1c1ccc(F)cc1` (mixture of isomers) [5/6 (70:30), (3R,4R)-3-[(2R/S)-2-(4-fluorophenyl)-2-hydroxyethylamino]-1-(4-fluorophenyl)-4-(4-hydroxyphenyl)azetidin-2-one], the CC50 at 72 h in data set [1] was greater than 100 µM. Moreover, in the data set on cholesterol absorption (gavage 20 mg/kg/day for 2 days), the “In vivo inhibition (%) of cholesterol absorption, Duodenum” value (“In vivo inhibition (%) … Duodenum” for short) is listed as 49 ± 7 %; the “In vivo inhibition (%) of cholesterol absorption, Ileum” value (“In vivo inhibition (%) … Ileum” below) is listed as 41 ± 21%; the “In vivo inhibition (%) of cholesterol absorption, Jejunum” value (“In vivo inhibition (%) … Jejunum” below) is given as 48 ± 9 %; the “In vivo inhibition (%) of cholesterol absorption, Liver” value (from here on “In vivo inhibition (%) … Liver”) stood at 70 ± 5 %. The “In vivo inhibition (%) of cholesterol absorption, Plasma” value (“In vivo inhibition (%) … Plasma” for short) in the data set with cholesterol absorption (gavage 20 mg/kg/day for 2 days) is on record as 64 ± 7 %. Further, the CC50 at 1 h in data set [2] was greater than 100 µM. In data set [3], the CC50 at 72 h is greater than 100 µM.

For `O=C1[C@H](NC[C@@H](O)c2ccc(F)cc2)[C@@H](c2ccc(O)cc2)N1c1ccc(F)cc1` [Compound 6, (3R,4R)-3-[(2S)-2-(4-fluorophenyl)-2-hydroxyethylamino]-1-(4-fluorophenyl)-4-(4-hydroxyphenyl)azetidin-2-one], the CC50 at 72 h in data set [1] was greater than 100 µM. In the data set with cholesterol absorption (gavage 10 mg/kg/day for 2 days), the “In vivo inhibition (%) … Duodenum” value came to 43 ± 11 %; the “In vivo inhibition (%) … Ileum” value came to 58 ± 8 %; the “In vivo inhibition (%) … Jejunum” value is 37 ± 11 %. Besides, in the data set on cholesterol absorption (setting [4]), the “In vivo inhibition (%) … Liver” value was 47% and 47 ± 0 %; the “In vivo inhibition (%) … Plasma” value was 32% and 32 ± 5 %. Moreover, in the data set with cholesterol absorption (gavage 20 mg/kg/day for 2 days), the “In vivo inhibition (%) … Duodenum” value is given as 35 ± 9 %; the “In vivo inhibition (%) … Ileum” value is reported as 60 ± 9 %; the “In vivo inhibition (%) … Jejunum” value worked out at 26 ± 8%; the “In vivo inhibition (%) … Liver” value was found to be 49 ± 10 %. Also, the “In vivo inhibition (%) … Plasma” value in the data set with cholesterol absorption (gavage 20 mg/kg/day for 2 days) worked out at 38 ± 11 %. For the same compound, in the data set on cholesterol absorption (span over the 10 and 20 mg/kg/day groups), the “inhibition of [3H]cholesterol in the ileum” value is recorded as 58–60%. Further, the CC50 at 1 h in data set [2] is greater than 100 µM. In data set [3], the CC50 at 72 h was greater than 100 µM.

In the case of `O=C1[C@H](CC[C@H](O)c2ccc(F)cc2)[C@@H](c2ccc(O)cc2)N1c1ccc(F)cc1` [Compound 1, ezetimibe, reference compound], the CC50 at 96 h in data set [1] (72 h) stood at 62.3 µM. In the data set on cholesterol absorption (gavage 10 mg/kg/day for 2 days), the “In vivo inhibition (%) … Duodenum” value turned out to be 65 ± 1 %; the “In vivo inhibition (%) … Ileum” value is on record as 47 ± 3 %; the “In vivo inhibition (%) … Jejunum” value is reported as 61 ± 2 %; the “In vivo inhibition (%) … Liver” value stood at 52 ± 3 %. Moreover, the “In vivo inhibition (%) … Plasma” value in the data set on cholesterol absorption (gavage 10 mg/kg/day for 2 days) is 60 ± 6 %. In data set [2], the CC50 at 1 h was greater than 100 µM. Besides, in data set [3], the CC50 at 72 h was greater than 100 µM.

Take `O=C1[C@H](NC[C@H](O)c2ccc(F)cc2)[C@@H](c2ccc(O)cc2)N1c1ccc(F)cc1` [Compound 5]: the CC50 at 72 h in data set [1] and in data set [3] was greater than 100 µM each time. Also, in the data set on cholesterol absorption (10 mg/kg/day, small intestine overall, not statistically significant), the “reduction of radioactivity in the small intestine” value is recorded as roughly 22%. For the same compound, the “In vivo inhibition (%) … Duodenum” value in the data set on cholesterol absorption (gavage 10 mg/kg/day for 2 days) is listed as 23 ± 18%; with cholesterol absorption (gavage 20 mg/kg/day for 2 days), 18 ± 14%. Moreover, the “In vivo inhibition (%) … Jejunum” value in the data set on cholesterol absorption (gavage 10 mg/kg/day for 2 days) is given as 23 ± 13%; in the data set with cholesterol absorption (gavage 20 mg/kg/day for 2 days), 19 ± 16%. Moreover, the “In vivo inhibition (%) … Ileum” value in the data set on cholesterol absorption (setting [4]) is 21% and 21 ± 20%; in the data set on cholesterol absorption (gavage 20 mg/kg/day for 2 days, 20 mg/kg/day), 41% and 41 ± 12 %. Further, the “In vivo inhibition (%) … Liver” value is 44% and 44 ± 6 % in the data set with cholesterol absorption (setting [4]); 33 ± 6 % with cholesterol absorption (gavage 20 mg/kg/day for 2 days). The “In vivo inhibition (%) … Plasma” value in the data set on cholesterol absorption (setting [4]) is 50% and 50 ± 8 %; in the data set on cholesterol absorption (gavage 20 mg/kg/day for 2 days) it was 52 ± 7 %. Also, the CC50 at 1 h in data set [2] was greater than 100 µM.
